For assay [1], the system named is HL-60. The assay can be described thus: Cytotoxicity against human HL60 cells assessed as cell growth inhibition at 5 ug/ml measured after 72 hrs by MTT assay relative to control. It counts as functional. As to conditions: HL-60, 72 h, read-out: GI. (Tetrazolium assays rely on reduction of a dye to a coloured formazan, in cell work by metabolically active cells.)

The subject of assay [2] is OVCAR-8. The assay is described as follows: Cytotoxicity against human OVCAR8 cells assessed as cell growth inhibition at 5 ug/ml measured after 72 hrs by MTT assay relative to control. Format: functional. As to conditions: OVCAR-8, 72 h, read-out: GI.
In assay [3] the test system is HCT-116. The assay can be described thus: Cytotoxicity against human HCT116 cells assessed as cell growth inhibition at 5 ug/ml measured after 72 hrs by MTT assay relative to control. Format: functional. Conditions: HCT-116, 72 h, read-out: GI.
For assay [4], the system named is HCT-116. The assay is described as follows: Cell cycle arrest in human HCT116 cells assessed as accumulation at S phase at 0.1 uM measured after 48 hrs by propidium iodide staining based flow cytometry (reference value: 33.29 %). Format: functional. A general note: Flow cytometry measures light scatter and fluorescence of single cells or particles in a stream.
The test system of assay [5] is HCT-116. The assay is described as follows: Cell cycle arrest in human HCT116 cells assessed as accumulation at G2/M phase at 0.1 uM measured after 48 hrs by propidium iodide staining based flow cytometry (reference value: 24.98 %). It counts as functional.
The subject of assay [6] is HCT-116. The assay is described as follows: Cell cycle arrest in human HCT116 cells assessed as accumulation at G0/G1 phase at 0.1 uM measured after 48 hrs by propidium iodide staining based flow cytometry (reference value: 41.67 %). Format: functional.
The test system of assay [7] is HCT-116. The assay can be described thus: Induction of morphological changes in human HCT116 cells assessed as bleb formation at 0.2 uM measured after 48 hrs by propidium iodide staining based flow cytometry. It counts as functional, cell-based.
The test system of assay [8] is HCT-116. The assay is described as follows: Induction of morphological changes in human HCT116 cells assessed as cell pyknosis at 0.2 uM measured after 48 hrs by propidium iodide staining based flow cytometry. It counts as functional.
The test system of assay [9] is HCT-116. The assay is described as follows: Induction of DNA fragmentation in human HCT116 cells at 0.2 uM measured after 48 hrs by propidium iodide staining based flow cytometry relative to control. Format: functional.
The subject of assay [10] is HCT-116. The assay can be described thus: Cell cycle arrest in human HCT116 cells assessed as accumulation at G0/G1 phase at 0.2 uM measured after 48 hrs by propidium iodide staining based flow cytometry (reference value: 41.67 %). Format: functional.
In assay [11] the test system is HCT-116. The assay can be described thus: Cell cycle arrest in human HCT116 cells assessed as accumulation at S phase at 0.2 uM measured after 48 hrs by propidium iodide staining based flow cytometry (reference value: 33.29 %). Format: functional.
In assay [12] the test system is SF-295. The assay can be described thus: Cytotoxicity against human SF295 cells assessed as reduction in cell viability measured after 72 hrs by MTT assay. It counts as functional, cell-based. As to conditions: SF-295, 72 h.
For assay [13], the system named is L929. The assay is described as follows: Cytotoxicity against mouse L929 cells assessed as reduction in cell viability measured after 72 hrs by MTT assay. It counts as cell-based. As to conditions: L929, 72 h.
Assay [14] has as its system HCT-116. The assay can be described thus: Cell cycle arrest in human HCT116 cells assessed as accumulation at G2/M phase at 0.2 uM measured after 48 hrs by propidium iodide staining based flow cytometry (reference value: 24.98 %). It counts as functional.

The source made the active and inactive calls. The rule behind the calls is not given here.

On to `O=[N+]([O-])c1ccc(/C=N/Nc2cnc3ccccc3n2)o1`, for which the inhibition of growth at 5 µg/mL was 12.2% in assay [1], 3.95% in [2] and 27.1% in [3].

As for `C(=N\Nc1cnc2ccccc2n1)/c1cccs1`, the inhibition of growth at 5 µg/mL in assay [1] was 19.7%; in [2], 0%; in [3] it was 21%.

As for `C(=N\Nc1cnc2ccccc2n1)/c1ccc[nH]1`, the results for the inhibition of growth at 5 µg/mL in [1], in assay [2] and in assay [3] were 96.3%, 52.3% and 54.3%, respectively.

With `CC(=O)O[C@H]1C(=O)[C@@]2(C)[C@H]([C@H](OC(=O)c3ccccc3)[C@]3(O)C[C@H](OC(=O)[C@H](O)[C@@H](NC(=O)c4ccccc4)c4ccccc4)C(C)=C1C3(C)C)[C@]1(OC(C)=O)CO[C@@H]1C[C@@H]2O` [PACLITAXEL], the Activity in assay [4] was found to be 25.09%; in assay [5] it was 61.69%; in [6], 13.83%.

As a reminder, the IC50 is the concentration at which inhibition is half-maximal. In the case of `COc1cccc2c1C(=O)c1c(O)c3c(c(O)c1C2=O)C[C@@](O)(C(=O)CO)C[C@@H]3O[C@H]1C[C@H](N)[C@H](O)[C@H](C)O1` [DOXORUBICIN], the result in assay [7] and in [8] was Active. For the same molecule, the Activity is 6.02% in assay [9], 16.48% in [10], 22.72% in assay [11] and 60.53% in assay [14]. The 50% inhibitory concentration (IC50) in [12] amounted to 250 nM; in [13], 660 nM.

As for `C(=N\Nc1cnc2ccccc2n1)/c1cccnc1`, the inhibition of growth at 5 µg/mL came to 0% in [1], 10.2% in [2] and 18.8% in assay [3].

In the case of `O=[N+]([O-])c1ccc(/C=N/Nc2cnc3ccccc3n2)s1`, the inhibition of growth at 5 µg/mL in assay [1] was found to be 0%; in assay [2], 0%; in assay [3], 0.03%.

Turning to `C(=N\Nc1cnc2ccccc2n1)/c1cnc[nH]1`, the values for the inhibition of growth at 5 µg/mL in assay [1], in assay [2] and in assay [3] were 98.8%, 57.4% and 77.2%, respectively.

On to `C(=N\Nc1cnc2ccccc2n1)/c1ccco1`, for which the inhibition of growth at 5 µg/mL in assay [1] is 0%; in assay [2], 3.56%; in assay [3] it was 9.01%.

In the case of `C(=N\Nc1cnc2ccccc2n1)/c1ccncc1`, the inhibition of growth at 5 µg/mL in assay [1] came out at 0%; in assay [2] it was 14.9%; in [3], 33.7%.
